Laboratory results as given in paper PMC3975393, “Structure of N-Terminal Sequence Asp-Ala-Glu-Phe-Arg-His-Asp-Ser of Aβ-Peptide with Phospholipase A2 from Venom of Andaman Cobra Sub-Species Naja naja sagittifera at 2.0 Å Resolution” (International Journal of Molecular Sciences, 2014).

Tested on: PLA2
Experiment: X-ray co-crystal structure of the complex with PLA2 (PDB 3JQ5)
Assay type: binding, Naja naja sagittifera
Conditions: 2.0 Å resolution, peptide at 10-fold high molar concentration, 10 mM sodium phosphate pH 6.0, 1 mM CaCl2, 3 h incubation
Experimental: The lyophilized samples of crude cobra venom of Naja naja sagittifera were obtained from Irula Snake Catchers Industrial Cooperative Society, Chennai, India. The crude venom was dissolved in 50 mM Tris-HCl, 100 mM NaCl, pH 7.0 at 100 mg/mL concentration and centrifuged at 12,000× g for 10 min to remove insoluble material. The collected supernatant was size fractionated on Sephadex G-100 column (100 × 2 cm) pre-equilibrated with 50 mM Tris-HCl, 100 mM NaCl, pH 7.0. The column was eluted with the same buffer at a flow rate of 6 mL/h. The peak corresponding to molecular weight of 14 kDa on SDS-PAGE and showing PLA2 activity was pooled for further purification. The pooled fractions were desalted and dialysed against 50 mM Tris-HCl, pH 7.0 and loaded on CM Sephadex C-50 column (Pharmacia, Uppsala, Sweden). The column was washed with the above buffer. The unbound fractions were pooled and dialysed against ammonium acetate buffer, pH 6.0. […] The N-terminal sequence of the first 15 residues was determined. […]
The crystal structure was determined with molecular replacement method using auto-AMoRe from the CCP4 software suit (Collaborative Computational Project, Number 4, 1994). […] The rotation and translation functions calculated with data in the resolution range, 12.0–3.5 Å yielded a unique solution with the first peak being very distinct. […]

For “Asp-Ala-Glu-Phe-Arg-His-Asp-Ser [DAEFRHDS]”, the “binding in the substrate binding site / hydrophobic channel of PLA2” value was “strongly interacted with the non-polar binding-cavity residues of PLA2” and the “binding in the substrate binding site / hydrophobic channel of PLA2” value (listed as octa-peptide) was “fitted well in the substrate binding site of enzyme”.
